According to patent US6632643B2, “Use of α-1,4-glucan lyase for preparation of 1,5-D-hydrofructose” (Danisco A/S, priority 1993, dated 2003):
Marks after values point to notes of the source that are not given here.

Key:
lyase from M. costata = assay: Relative degrading rates of the lyase from M. costata towards various substrates; assay type: biochemical, Morchella costata; conditions: for degradation (AF detectable on TLC plates): incubated for 48 h; for activity (maltotetraose as 100%): purified fungal lyase, section B.1.4.3
[1] = test system: lyase purified from the fungal infected algae; assay: Effect of alcohols on activity and stability of the lyase (AF yield); assay type: biochemical, fungal infected Gracilariopsis lemaneiformis
Experimental: 1-propanol, 2-propanol and 1-butanol were tested at the following concentrations (0%, 1%, 5% and 10%).
Ethanol was tested at the following concentrations (0, 1, 3, 5, 7, 9, 11, 13, 15%).

lyase from M. vulgaris = assay: Relative degrading rates of the lyase from M. vulgaris towards various substrates; assay type: biochemical, Morchella vulgaris; conditions: for degradation (AF detectable on TLC plates): incubated for 48 h; for Activity (%) (maltotetraose = 100%): all substrates 10 mg ml^−1
Experimental: The activity observed for maltotetraose is treated as 100%. The final concentration of all substrates was 10 mg ml^−1.

[2] = test system: α-1,4-glucan lyase from the parasite-free red seaweed Gracilariopsis lemaneiformis; assay: Degradation rates of the Californian algal lyase on various substrates; assay type: biochemical; conditions: for AF released: substrate 10 mg/ml, pH 3.8, 40 min at 45° C.
Experimental: Reaction conditions: The reaction mixture contained 10 mM of HOAc-NaOAc (pH 3.8). The substrate concentration was 10 mg/ml. The final volume was 100 ul after the addition of lyase and water. The reaction time was 40 min at 45° C.

α-1,4-glucan lyase = assay: Activity of the lyase towards maltosaccharides (summary); assay type: biochemical
[3] = test system: lyase from the fungal infected Gracilariopsis lemaneiformis; assay: Reaction rates with glycogen and amylopectin, lyase from fungal infected Gracilariopsis lemaneiformis; assay type: biochemical

O=[N+]([O-])c1ccc(O[C@H]2O[C@H](CO)[C@@H](O[C@H]3O[C@H](CO)[C@@H](O[C@H]4O[C@H](CO)[C@@H](O[C@H]5O[C@H](CO)[C@@H](O[C@H]6O[C@H](CO)[C@@H](O[C@H]7O[C@H](CO)[C@@H](O[C@H]8O[C@H](CO)[C@@H](O)[C@H](O)[C@H]8O)[C@H](O)[C@H]7O)[C@H](O)[C@H]6O)[C@H](O)[C@H]5O)[C@H](O)[C@H]4O)[C@H](O)[C@H]3O)[C@H](O)[C@H]2O)cc1 [p-nitrophenyl α-D-maltoheptaose]
degradation by the fungal lyase (lyase from M. costata): degraded

CC(C)O [2-propanol]
increase of AF yield ([1]; 1%, after 10 days incubation): 20% | optimal concentration for AF yield ([1]; tested at 0%, 1%, 5% and 10%): 1%

OC[C@H]1O[C@H](O[C@H]2O[C@H](CO)[C@@H](O)[C@H](O)[C@H]2O)[C@H](O)[C@@H](O)[C@@H]1O [Trehalose]
degradation (AF detectable on TLC plates) (lyase from M. costata): no AF detectable | degradation (AF detectable on TLC plates) (lyase from M. vulgaris): no AF detectable | degradation by the lyase [2]: not able to degrade

OC[C@H]1O[C@H](O[C@H]2[C@H](O)[C@@H](CO)OC(O)[C@@H]2O)[C@H](O)[C@@H](O)[C@@H]1O (some centres unmarked) [nigerose]
degradation (AF detectable on TLC plates) (lyase from M. costata): no AF detectable | degradation (AF detectable on TLC plates) (lyase from M. vulgaris): no AF detectable | degradation by the lyase [2]: slow rate

OC[C@H]1O[C@H](OC[C@H]2O[C@H](O[C@H]3[C@H](O)[C@@H](O)C(O)O[C@@H]3CO)[C@H](O)[C@@H](O)[C@@H]2O)[C@H](O)[C@@H](O)[C@@H]1O (some centres unmarked) [panose]
degradation (AF detectable on TLC plates) (lyase from M. costata): no AF detectable | degradation (AF detectable on TLC plates) (lyase from M. vulgaris): no AF detectable | degradation by the lyase [2]: slow rate

Soluble starch
relative degrading rate (maltotetraose = 100%) (lyase from M. costata; substrate 10 mg/ml): 92.9% | Activity (%) (maltotetraose = 100%) (lyase from M. vulgaris): 100.5%

OC[C@H]1O[C@@H]2O[C@H]3[C@H](O)[C@@H](O)[C@@H](O[C@H]4[C@H](O)[C@@H](O)[C@@H](O[C@H]5[C@H](O)[C@@H](O)[C@@H](O[C@H]6[C@H](O)[C@@H](O)[C@@H](O[C@H]7[C@H](O)[C@@H](O)[C@@H](O[C@H]1[C@H](O)[C@H]2O)O[C@@H]7CO)O[C@@H]6CO)O[C@@H]5CO)O[C@@H]4CO)O[C@@H]3CO [alpha-cyclodextrin]
degradation (AF detectable on TLC plates) (lyase from M. costata): no AF detectable | degradation (AF detectable on TLC plates) (lyase from M. vulgaris): no AF detectable | degradation by the lyase [2]: not able to degrade

pullulan
degradation (AF detectable on TLC plates) (lyase from M. costata): no AF detectable | degradation (AF detectable on TLC plates) (lyase from M. vulgaris): no AF detectable | degradation by the lyase [2]: not able to degrade

OC[C@H]1O[C@H](OC[C@H]2OC(O)[C@H](O)[C@@H](O)[C@@H]2O)[C@H](O)[C@@H](O)[C@@H]1O (some centres unmarked) [isomaltose]
degradation (AF detectable on TLC plates) (lyase from M. costata): no AF detectable | degradation (AF detectable on TLC plates) (lyase from M. vulgaris): no AF detectable | degradation by the lyase [2]: not able to degrade

amylose
degradation by the fungal lyase (lyase from M. costata): also degraded

CCO [Ethanol]
increase of AF yield ([1]; 3%, 10 days incubation): 16% | increase of AF yield ([1]; 5%, 7 days incubation): 12% | optimal concentration for AF yield ([1]; 7 days incubation, tested 0-15%): 5% | optimal concentration for AF yield ([1]; 10 days incubation, tested 0-15%): 3%

OC[C@H]1O[C@H](O[C@H]2[C@H](O)[C@@H](O)[C@@H](O[C@H]3[C@H](O)[C@@H](O)[C@@H](O[C@H]4[C@H](O)[C@@H](O)C(O)O[C@@H]4CO)O[C@@H]3CO)O[C@@H]2CO)[C@H](O)[C@@H](O)[C@@H]1O (some centres unmarked) [Maltotetraose, maltotetraose]
activity (maltotetraose as 100%) (lyase from M. costata): 100% | relative degrading rate (maltotetraose = 100%) (lyase from M. costata; substrate 2 mg/ml): 100% | relative degrading rate (maltotetraose = 100%) (lyase from M. costata; substrate 4 mg/ml): 100% | relative degrading rate (maltotetraose = 100%) (lyase from M. costata; substrate 10 mg/ml): 100% | Activity (%) (maltotetraose = 100%) (lyase from M. vulgaris): 100.0% | AF released [2]: 670 nmol | lyase activity towards maltosaccharide (α-1,4-glucan lyase): highest activity

1-butanol
increase of AF yield ([1]; 5%, after 3-day incubation): 52% | optimal concentration for AF yield ([1]; tested at 0%, 1%, 5% and 10%): 5%

Glycogen
degradation by the fungal lyase (lyase from M. costata): also degraded | relative degrading rate (maltotetraose = 100%) (lyase from M. costata; substrate 10 mg/ml): 128.5% | Activity (%) (maltotetraose = 100%) (lyase from M. vulgaris): 183.3% | substrate concentration at which half of the maximal velocity rate was reached [2]: 3.37 mg/mL | AF released [2]: 592 nmol | ratio of relative reaction rates between Glycogen and Amylopectin (%) ([3]; 25 C.): 72.4% | relative reaction rates ([3]; 25 C.): 0.592^a | ratio of relative reaction rates between Glycogen and Amylopectin (%) ([3]; 30 C.): 79.8% | relative reaction rates ([3]; 30 C.): 0.904^a | ratio of relative reaction rates between Glycogen and Amylopectin (%) ([3]; 45 C.): 158.9% | relative reaction rates ([3]; 45 C.): 1.861^a

OC[C@H]1O[C@@H]2O[C@H]3[C@H](O)[C@@H](O)[C@@H](O[C@H]4[C@H](O)[C@@H](O)[C@@H](O[C@H]5[C@H](O)[C@@H](O)[C@@H](O[C@H]6[C@H](O)[C@@H](O)[C@@H](O[C@H]7[C@H](O)[C@@H](O)[C@@H](O[C@H]8[C@H](O)[C@@H](O)[C@@H](O[C@H]9[C@H](O)[C@@H](O)[C@@H](O[C@H]1[C@H](O)[C@H]2O)O[C@@H]9CO)O[C@@H]8CO)O[C@@H]7CO)O[C@@H]6CO)O[C@@H]5CO)O[C@@H]4CO)O[C@@H]3CO [gama-cyclodextrin]
degradation (AF detectable on TLC plates) (lyase from M. costata): no AF detectable | degradation (AF detectable on TLC plates) (lyase from M. vulgaris): no AF detectable | degradation by the lyase [2]: not able to degrade

O=[N+]([O-])c1ccc(OC2OC(CO)C(OC3OC(CO)C(OC4OC(CO)C(OC5OC(CO)C(OC6OC(CO)C(OC7OC(CO)C(OC8OC(CO)C(O)C(O)C8O)C(O)C7O)C(O)C6O)C(O)C5O)C(O)C4O)C(O)C3O)C(O)C2O)cc1 (centres unmarked)
degradation by the fungal lyase (lyase from M. costata): failed to degrade | degradation (AF detectable on TLC plates) (lyase from M. costata): no AF detectable | degradation (AF detectable on TLC plates) (lyase from M. vulgaris): no AF detectable

1-propanol
AF yield ([1]; 1% (v/v), 1 day): 80 µmol | AF yield ([1]; 1% (v/v), 3 days): 280 µmol | AF yield ([1]; 1% (v/v), 6 days): 530 µmol | AF yield ([1]; 1% (v/v), 10 days): 803 µmol | AF yield ([1]; 5% (v/v), 1 day): 115 µmol | AF yield ([1]; 5% (v/v), 3 days): 367 µmol | AF yield ([1]; 5% (v/v), 6 days): 605 µmol | AF yield ([1]; 5% (v/v), 10 days): 853 µmol | increase of AF yield ([1]; 5%, after 6 days of incubation): 34% | AF yield ([1]; 10% (v/v), 1 day): 107 µmol | AF yield ([1]; 10% (v/v), 3 days): 307 µmol | AF yield ([1]; 10% (v/v), 6 days): 456 µmol | AF yield ([1]; 10% (v/v), 10 days): 583 µmol | optimal concentration for AF yield ([1]; tested at 0%, 1%, 5% and 10%): 5%

OC[C@H]1O[C@H](O[C@H]2[C@H](O)[C@@H](O)[C@@H](O[C@H]3[C@H](O)[C@@H](O)[C@@H](O[C@H]4[C@H](O)[C@@H](O)[C@@H](O[C@H]5[C@H](O)[C@@H](O)[C@@H](O[C@H]6[C@H](O)[C@@H](O)C(O)O[C@@H]6CO)O[C@@H]5CO)O[C@@H]4CO)O[C@@H]3CO)O[C@@H]2CO)[C@H](O)[C@@H](O)[C@@H]1O (some centres unmarked) [Maltohexaose, maltohexaose]
activity (maltotetraose as 100%) (lyase from M. costata): 97% | relative degrading rate (maltotetraose = 100%) (lyase from M. costata; substrate 2 mg/ml): 86.6% | relative degrading rate (maltotetraose = 100%) (lyase from M. costata; substrate 4 mg/ml): 98.2% | relative degrading rate (maltotetraose = 100%) (lyase from M. costata; substrate 10 mg/ml): 95.9% | Activity (%) (maltotetraose = 100%) (lyase from M. vulgaris): 92.4% | AF released [2]: 826 nmol

OC[C@H]1O[C@@H]2O[C@H]3[C@H](O)[C@@H](O)[C@@H](O[C@H]4[C@H](O)[C@@H](O)[C@@H](O[C@H]5[C@H](O)[C@@H](O)[C@@H](O[C@H]6[C@H](O)[C@@H](O)[C@@H](O[C@H]7[C@H](O)[C@@H](O)[C@@H](O[C@H]8[C@H](O)[C@@H](O)[C@@H](O[C@H]1[C@H](O)[C@H]2O)O[C@@H]8CO)O[C@@H]7CO)O[C@@H]6CO)O[C@@H]5CO)O[C@@H]4CO)O[C@@H]3CO [beta-cyclodextrin]
degradation (AF detectable on TLC plates) (lyase from M. costata): no AF detectable | degradation (AF detectable on TLC plates) (lyase from M. vulgaris): no AF detectable | degradation by the lyase [2]: not able to degrade

OC[C@H]1O[C@H](O[C@@H]2[C@@H](O)[C@@H](O[C@@H]3[C@@H](O)[C@@H](O[C@H]4[C@H](O)[C@@H](CO)OC(O)[C@@H]4O)O[C@H](CO)[C@H]3O)O[C@H](CO)[C@H]2O)[C@H](O)[C@@H](O)[C@@H]1O (some centres unmarked) [nigerotetraose]
degradation (AF detectable on TLC plates) (lyase from M. costata): no AF detectable | degradation (AF detectable on TLC plates) (lyase from M. vulgaris): no AF detectable | degradation by the lyase [2]: not able to degrade
